{"source": "PubChem BioAssay AID652194", "about": "(Johns Hopkins Ion Channel Center, 2013)", "molecular_target": "Voltage-gated inwardly rectifying potassium channel KCNH2 (Homo sapiens) (UniProt Q12809)", "sequence (Q12809 whole entry, looked up)": "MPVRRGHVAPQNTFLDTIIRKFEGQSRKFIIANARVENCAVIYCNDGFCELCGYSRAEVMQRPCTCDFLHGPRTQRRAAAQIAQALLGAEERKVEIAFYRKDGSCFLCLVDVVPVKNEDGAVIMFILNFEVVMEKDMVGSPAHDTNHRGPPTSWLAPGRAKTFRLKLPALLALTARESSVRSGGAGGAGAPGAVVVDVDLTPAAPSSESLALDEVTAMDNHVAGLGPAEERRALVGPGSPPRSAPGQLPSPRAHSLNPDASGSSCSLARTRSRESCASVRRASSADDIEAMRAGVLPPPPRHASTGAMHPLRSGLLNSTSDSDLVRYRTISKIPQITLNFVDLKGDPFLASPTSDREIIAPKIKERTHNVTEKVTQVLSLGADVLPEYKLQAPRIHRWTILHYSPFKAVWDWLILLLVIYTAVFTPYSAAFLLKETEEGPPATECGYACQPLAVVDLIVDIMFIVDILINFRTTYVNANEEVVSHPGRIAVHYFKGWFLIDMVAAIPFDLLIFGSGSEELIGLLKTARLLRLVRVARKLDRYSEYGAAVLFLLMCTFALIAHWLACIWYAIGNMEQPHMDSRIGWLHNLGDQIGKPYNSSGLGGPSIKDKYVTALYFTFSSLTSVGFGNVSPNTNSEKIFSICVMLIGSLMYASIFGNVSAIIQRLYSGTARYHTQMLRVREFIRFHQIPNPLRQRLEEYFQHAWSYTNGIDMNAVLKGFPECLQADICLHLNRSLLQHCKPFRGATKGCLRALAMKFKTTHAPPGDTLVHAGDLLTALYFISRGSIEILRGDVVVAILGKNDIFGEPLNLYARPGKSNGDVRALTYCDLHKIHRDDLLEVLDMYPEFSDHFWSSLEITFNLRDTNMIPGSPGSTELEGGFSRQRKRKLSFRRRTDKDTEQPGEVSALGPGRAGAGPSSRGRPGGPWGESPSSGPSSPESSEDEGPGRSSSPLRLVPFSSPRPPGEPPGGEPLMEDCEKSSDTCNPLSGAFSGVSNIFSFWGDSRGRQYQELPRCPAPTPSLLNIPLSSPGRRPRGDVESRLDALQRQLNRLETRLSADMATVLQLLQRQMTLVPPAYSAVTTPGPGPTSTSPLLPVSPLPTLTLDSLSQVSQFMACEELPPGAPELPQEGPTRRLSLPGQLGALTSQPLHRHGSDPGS", "assay": "hERG channel inhibition in selectivity testing, SAR follow-up, selectivity assay for TASK1 inhibitor project, FluxOR thallium flux, concentration-response, CHO cells (AID 652194)", "conditions": "hERG-expressing cells, FluxOR thallium flux fluorescence; at 30 µM (top of the series)", "note": "Calls of active or inactive are those of the source.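 The calls were made as follows: active = hERG flux cut by over 30% at some tested dose, with a fitted dose response curve; inactive = no hERG inhibition at any dose or no curve.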", "data": [{"smiles": "CCOc1ccccc1NC(=O)c1cccc(NC(=O)CC2CCCC2)c1", "values": [{"measurement": "flux ratio, lower = inhibition", "result": "inactive"}]}, {"smiles": "Cc1ccc(C(=O)Nc2cccc(NC(=O)c3ccccc3)c2)cc1", "values": [{"measurement": "flux ratio, lower = inhibition", "result": "inactive"}]}]}
